In patent US20180244611A1, “Modulators of the Cystic Fibrosis Transmembrane Conductance Regulator Protein and Methods of Use” (AbbVie S.à.r.l., priority 2017, published 2018):

Experiments:
F508delCFTR [1] = biological target: T1, F508delCFTR (Homo sapiens, UniProt P13569, DEL508-508); assay: Cell Surface Expression-Horse Radish Peroxidase (CSE-HRP) assay, test compound without co-corrector; assay type: cell-based; conditions: for Emax: maximum at any tested concentration, normalized to positive control, without co-corrector; for EC50: test compound without co-corrector;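 as to Emax: percent of on-plate 2 µM positive control corrector response over DMSO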
T1 construct: expressed in transfected cells; host or cells: CFBE41o- human lung-derived epithelial cells (CFBE41o-F508delCFTR-HRP), doxycycline-inducible
In short: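 CFBE41o- cells expressing F508delCFTR with HRP in the fourth exofacial loop, induced with 0.5 μg/mL doxycycline for 72 h at 37° C, then exposed to compound alone for 18-24 h at 33° C, 8-point 3-fold series from 20 μM. Surface HRP read by luminol luminescence, normalized to positive corrector control versus DMSO; EC50 from variable-slope sigmoidal fit of three replicate plates.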

F508delCFTR [2] = biological target: T1, F508delCFTR; assay: Cell Surface Expression-Horse Radish Peroxidase (CSE-HRP) assay, test compound with co-corrector; assay type: cell-based; conditions: with 2 μM co-corrector; for Maximum % activity (with co-corrector): maximum at any tested concentration, normalized to positive control;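 as to Maximum % activity (with co-corrector): percent of 2 µM positive control corrector over DMSO; co-corrector is that same compound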
In short: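 CFBE41o- cells expressing F508delCFTR with HRP in the fourth exofacial loop, induced with 0.5 μg/mL doxycycline for 72 h, then treated 18-24 h at 33° C. with compound (8 points, top 20 μM, 3-fold) plus 2 μM co-corrector. Surface HRP read by luminol luminescence; activity normalised to positive control, EC50 from variable-slope sigmoidal fit.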

T1 sequence (P13569 with tags, fused parts or gaps DEL508-508): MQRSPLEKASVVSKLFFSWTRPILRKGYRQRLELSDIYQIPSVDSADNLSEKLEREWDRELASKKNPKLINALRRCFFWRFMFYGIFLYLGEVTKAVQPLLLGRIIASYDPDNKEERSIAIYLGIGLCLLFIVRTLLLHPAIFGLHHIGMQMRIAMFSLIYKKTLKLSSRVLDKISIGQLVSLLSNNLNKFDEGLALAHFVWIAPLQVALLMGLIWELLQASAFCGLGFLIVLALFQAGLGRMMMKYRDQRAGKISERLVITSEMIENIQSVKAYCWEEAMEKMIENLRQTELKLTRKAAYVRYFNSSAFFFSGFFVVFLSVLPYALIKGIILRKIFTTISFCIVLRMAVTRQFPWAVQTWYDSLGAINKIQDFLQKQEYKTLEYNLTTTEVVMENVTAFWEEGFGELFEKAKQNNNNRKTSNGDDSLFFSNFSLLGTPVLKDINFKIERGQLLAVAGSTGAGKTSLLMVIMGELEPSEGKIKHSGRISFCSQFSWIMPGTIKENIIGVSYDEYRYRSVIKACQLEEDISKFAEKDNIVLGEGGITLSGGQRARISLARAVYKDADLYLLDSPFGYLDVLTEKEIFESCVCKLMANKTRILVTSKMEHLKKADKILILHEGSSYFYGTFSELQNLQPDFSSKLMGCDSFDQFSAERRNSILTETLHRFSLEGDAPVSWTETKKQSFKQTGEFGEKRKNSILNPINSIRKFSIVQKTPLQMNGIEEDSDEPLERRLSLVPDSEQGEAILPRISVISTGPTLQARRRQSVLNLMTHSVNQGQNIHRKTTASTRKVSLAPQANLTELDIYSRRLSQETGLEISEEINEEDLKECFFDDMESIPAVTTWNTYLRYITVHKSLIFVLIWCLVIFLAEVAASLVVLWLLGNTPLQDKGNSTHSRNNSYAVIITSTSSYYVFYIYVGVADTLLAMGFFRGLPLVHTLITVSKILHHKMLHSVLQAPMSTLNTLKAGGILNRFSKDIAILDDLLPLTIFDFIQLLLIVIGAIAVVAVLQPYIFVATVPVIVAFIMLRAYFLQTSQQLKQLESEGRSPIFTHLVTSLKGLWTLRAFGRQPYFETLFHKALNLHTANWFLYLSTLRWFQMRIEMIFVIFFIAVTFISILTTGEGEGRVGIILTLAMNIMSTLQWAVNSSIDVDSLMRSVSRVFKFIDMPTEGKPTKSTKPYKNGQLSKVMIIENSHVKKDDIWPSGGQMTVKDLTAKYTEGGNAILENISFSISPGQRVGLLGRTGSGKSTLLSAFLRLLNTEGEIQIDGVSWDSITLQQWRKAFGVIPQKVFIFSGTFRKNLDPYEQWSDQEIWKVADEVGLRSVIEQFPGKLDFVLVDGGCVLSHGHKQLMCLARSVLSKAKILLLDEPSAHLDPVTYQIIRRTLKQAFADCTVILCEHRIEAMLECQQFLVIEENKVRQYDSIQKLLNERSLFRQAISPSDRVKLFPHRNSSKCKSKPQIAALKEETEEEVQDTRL

Compound | Emax (F508delCFTR [1]) [%] | EC50 (F508delCFTR [1]) [µM] | Maximum % activity (with co-corrector) (F508delCFTR [2]) | EC50 (F508delCFTR [2]) [µM]
COc1ccc(Br)c2c1C(C(=O)NS(=O)(=O)c1cccc3ncccc13)CCC2 (centres unmarked) [Example I-50, 5-bromo-8-methoxy-N-(quinoline-5-sulfonyl)-1,2,3,4-tetrahydronaphthalene-1-carboxamide] | ≥ 150 | < 3 | +++ (≥350) | < 3
COc1ccc(Br)c2c1[C@@H](C(=O)NS(=O)(=O)c1cccc3ccccc13)CC2 [Example I-51, (1S)-4-bromo-7-methoxy-N-(naphthalene-1-sulfonyl)-2,3-dihydro-1H-indene-1-carboxamide] | 50 to 150 | 3 to 10 | ++ (≥150 and <350) | 3 to 10
COc1ccc(Br)c2c1[C@H](C(=O)NS(=O)(=O)c1cccc3ccccc13)CC2 [Example I-52, (1R)-4-bromo-7-methoxy-N-(naphthalene-1-sulfonyl)-2,3-dihydro-1H-indene-1-carboxamide] | ≥ 150 | < 3 | +++ (≥350) | < 3
CCOc1ccc(Br)c2c1C(C(=O)NS(=O)(=O)c1cccc3ccccc13)CC2 (centres unmarked) [Example I-53, 4-bromo-7-ethoxy-N-(naphthalene-1-sulfonyl)-2,3-dihydro-1H-indene-1-carboxamide] | ≥ 150 | < 3 | +++ (≥350) | < 3
CC(C)Oc1ccc(Br)c2c1C(C(=O)NS(=O)(=O)c1cccc3ccccc13)CC2 (centres unmarked) [Example I-54] | ≥ 150 | 3 to 10 | +++ (≥350) | < 3
O=C(NS(=O)(=O)c1cccc2ccccc12)C1CCc2c(Br)ccc(OCC3CC3)c21 (centres unmarked) [Example I-55, 4-bromo-7-(cyclopropylmethoxy)-N-(naphthalene-1-sulfonyl)-2,3-dihydro-1H-indene-1-carboxamide] | ≥ 150 | < 3 | +++ (≥350) | < 3
COc1ccc(Br)c2c1CCCC2C(=O)NS(=O)(=O)c1cccc2ncccc12 (centres unmarked) [Example I-56, 8-bromo-5-methoxy-N-(quinoline-5-sulfonyl)-1,2,3,4-tetrahydronaphthalene-1-carboxamide] | ≥ 150 | < 3 | +++ (≥350) | < 3
COc1ccc(-c2ccc(C)cc2)c2c1CCCC2C(=O)NS(=O)(=O)c1cccc2ccccc12 (centres unmarked) [Example I-57, 5-methoxy-8-(4-methylphenyl)-N-(naphthalene-1-sulfonyl)-1,2,3,4-tetrahydronaphthalene-1-carboxamide] | ≥ 150 | < 3 | +++ (≥350) | < 3
O=C(NS(=O)(=O)c1cccc2ccccc12)C1CCc2c(Br)ccc(OC(F)F)c21 (centres unmarked) [Example I-58, 4-bromo-7-(difluoromethoxy)-N-(naphthalene-1-sulfonyl)-2,3-dihydro-1H-indene-1-carboxamide] | ≥ 150 | < 3 | +++ (≥350) | < 3
COc1ccc(Cl)c2c1C(C(=O)NS(=O)(=O)c1cccc3ccccc13)CC2 (centres unmarked) [Example I-59, 4-chloro-7-methoxy-N-(naphthalene-1-sulfonyl)-2,3-dihydro-1H-indene-1-carboxamide] | ≥ 150 | 3 to 10 | +++ (≥350) | < 3
COc1ccc(C2CCC2)c2c1CCC[C@@H]2C(=O)NS(=O)(=O)c1cccc2ccccc12 [Example I-60, (1S)-8-cyclobutyl-5-methoxy-N-(naphthalene-1-sulfonyl)-1,2,3,4-tetrahydronaphthalene-1-carboxamide] | ≥ 150 | < 3 | +++ (≥350) | < 3
COc1ccc(C2CCC2)c2c1CCC[C@H]2C(=O)NS(=O)(=O)c1cccc2ccccc12 [Example I-61, (1R)-8-cyclobutyl-5-methoxy-N-(naphthalene-1-sulfonyl)-1,2,3,4-tetrahydronaphthalene-1-carboxamide] | ≥ 150 | < 3 | +++ (≥350) | < 3
CC[C@]1(C(=O)NS(=O)(=O)c2cccc3ccccc23)CCCc2cccc(Cl)c21 [Example I-64, (1S)-8-chloro-1-ethyl-N-(naphthalene-1-sulfonyl)-1,2,3,4-tetrahydronaphthalene-1-carboxamide] | ≥ 150 | < 3 | +++ (≥350) | < 3
CC[C@@]1(C(=O)NS(=O)(=O)c2cccc3ccccc23)CCCc2cccc(Cl)c21 [Example I-65, (1R)-8-chloro-1-ethyl-N-(naphthalene-1-sulfonyl)-1,2,3,4-tetrahydronaphthalene-1-carboxamide] | ≥ 150 | < 3 | +++ (≥350) | < 3
CCC1(C(=O)NS(=O)(=O)c2cccc3ccn(C)c23)CCc2c(Cl)cccc21 (centres unmarked) [Example I-66, 4-chloro-1-ethyl-N-(1-methyl-1H-indole-7-sulfonyl)-2,3-dihydro-1H-indene-1-carboxamide] | ≥ 150 | < 3 | +++ (≥350) | < 3
COc1ccc(CC(C)C)c2c1CCCC2C(=O)NS(=O)(=O)c1cccc2ccccc12 (centres unmarked) [Example I-67, 5-methoxy-8-(2-methylpropyl)-N-(naphthalene-1-sulfonyl)-1,2,3,4-tetrahydronaphthalene-1-carboxamide] | ≥ 150 | < 3 | +++ (≥350) | < 3
COc1ccc(CC(C)C)c2c1C(C(=O)NS(=O)(=O)c1cccc3ccccc13)CCC2 (centres unmarked) [Example I-68, 8-methoxy-5-(2-methylpropyl)-N-(naphthalene-1-sulfonyl)-1,2,3,4-tetrahydronaphthalene-1-carboxamide] | ≥ 150 | < 3 | +++ (≥350) | < 3
COc1ccc(C2CCC2)c2c1C(C(=O)NS(=O)(=O)c1cccc3ccccc13)CCC2 (centres unmarked) [Example I-69, 5-cyclobutyl-8-methoxy-N-(naphthalene-1-sulfonyl)-1,2,3,4-tetrahydronaphthalene-1-carboxamide] | ≥ 150 | < 3 | +++ (≥350) | < 3
COc1ccc(Cl)c2c1C(C(=O)NS(=O)(=O)c1cccc3ccccc13)CCC2 (centres unmarked) [Example I-70, 5-chloro-8-methoxy-N-(naphthalene-1-sulfonyl)-1,2,3,4-tetrahydronaphthalene-1-carboxamide] | ≥ 150 | < 3 | +++ (≥350) | < 3
COc1ccc(Cl)c2c1[C@@H](C(=O)NS(=O)(=O)c1cccc3ccccc13)CC2 [Example I-71, (1S)-4-chloro-7-methoxy-N-(naphthalene-1-sulfonyl)-2,3-dihydro-1H-indene-1-carboxamide] | 50 to 150 | 3 to 10 | ++ (≥150 and <350) | 3 to 10
COc1ccc(Cl)c2c1[C@H](C(=O)NS(=O)(=O)c1cccc3ccccc13)CC2 [Example I-72, (1R)-4-chloro-7-methoxy-N-(naphthalene-1-sulfonyl)-2,3-dihydro-1H-indene-1-carboxamide] | ≥ 150 | 3 to 10 | +++ (≥350) | < 3
COc1ccc(OC)c2c1CCCC2C(=O)NS(=O)(=O)c1cccc2ccccc12 (centres unmarked) [Example I-73, 5,8-dimethoxy-N-(naphthalene-1-sulfonyl)-1,2,3,4-tetrahydronaphthalene-1-carboxamide] | ≥ 150 | 3 to 10 | +++ (≥350) | < 3
CCC1(C(=O)NS(=O)(=O)c2cccc3c2ccn3C)CCc2c(Cl)cccc21 (centres unmarked) [Example I-74, 4-chloro-1-ethyl-N-(1-methyl-1H-indole-4-sulfonyl)-2,3-dihydro-1H-indene-1-carboxamide] | ≥ 150 | 3 to 10 | +++ (≥350) | < 3
COc1ccc(C)c2c1C(C(=O)NS(=O)(=O)c1cccc3ccccc13)CC2 (centres unmarked) [Example I-75, 7-methoxy-4-methyl-N-(naphthalene-1-sulfonyl)-2,3-dihydro-1H-indene-1-carboxamide] | ≥ 150 | < 3 | +++ (≥350) | < 3
COc1ccc(C2CCC2)c2c1C(C(=O)NS(=O)(=O)c1cccc3ccccc13)CC2 (centres unmarked) [Example I-76, 4-cyclobutyl-7-methoxy-N-(naphthalene-1-sulfonyl)-2,3-dihydro-1H-indene-1-carboxamide] | ≥ 150 | 3 to 10 | +++ (≥350) | < 3
COc1ccc(C2CCC2)c2c1C(C(=O)NS(=O)(=O)c1cccc3ncccc13)CC2 (centres unmarked) [Example I-77, 4-cyclobutyl-7-methoxy-N-(quinoline-5-sulfonyl)-2,3-dihydro-1H-indene-1-carboxamide] | ≥ 150 | 3 to 10 | +++ (≥350) | < 3
